Nine compounds from patent publication KR20130087877A, “피부미백, 항산화 및 ppar 활성을 갖는 신규 화합물 및 이의 의학적 용도” (부산대학교 산학협력단, priority 2012, dated 2013) can be followed below.

Molecules are shown by their SMILES.

The subject of experiment [1] is mushroom-derived tyrosinase (버섯 유래 티로시나아제). Briefly: Tyrosinase inhibition (dopachrome formation from L-tyrosine). As to conditions: 1 mM L-tyrosine, pH 6.5, 25℃, 30 min, 492 nm; compared with positive control kojic acid; Figure 2. It is filed as biochemical.
For experiment [2], the system named is ROS generated in vascular endothelial cells (혈관내피세포(YPEN-1)). Briefly: In vitro ROS scavenging activity, DCFDA assay in YPEN-1 vascular endothelial cells. It is filed as cell-based, rat. As to conditions: YPEN-1 cells, SIN-1 50 μM pretreatment 1 h, compared with positive control Trolox, Figure 1.
The target in experiment [3] is T1, PPARα (Homo sapiens, UniProt Q07869).
T1 sequence (Q07869 239-466 limits assumed): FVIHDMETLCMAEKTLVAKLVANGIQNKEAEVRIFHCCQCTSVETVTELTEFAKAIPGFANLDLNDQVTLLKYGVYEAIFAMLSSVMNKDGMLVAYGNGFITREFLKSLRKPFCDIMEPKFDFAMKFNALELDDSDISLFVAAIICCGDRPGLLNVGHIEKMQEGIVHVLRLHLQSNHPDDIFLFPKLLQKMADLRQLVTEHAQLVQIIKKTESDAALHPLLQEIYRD
Briefly: PPAR analysis, PPARα (Fluormone Pan-PPAR Green competition, competitive activation rate). The following applies: final sample concentration 100 μM; compared with positive control fenofibrate; Figure 3.

Experiment [4] addresses T2, PPARγ (Homo sapiens, UniProt P37231).
T2 sequence (P37231 238-503 limits assumed): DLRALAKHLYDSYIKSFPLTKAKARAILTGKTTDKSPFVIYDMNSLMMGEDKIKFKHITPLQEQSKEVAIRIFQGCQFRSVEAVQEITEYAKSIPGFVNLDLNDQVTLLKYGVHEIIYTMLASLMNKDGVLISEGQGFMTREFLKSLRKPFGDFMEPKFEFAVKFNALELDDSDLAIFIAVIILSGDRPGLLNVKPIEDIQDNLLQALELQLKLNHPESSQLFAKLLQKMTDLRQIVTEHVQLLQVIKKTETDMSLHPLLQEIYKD
Briefly: PPAR analysis, PPARγ (Fluormone Pan-PPAR Green competition, competitive activation rate). It is filed as binding. The following applies: final sample concentration 100 μM; compared with positive control rosiglitazone; Figure 4.

For experiment [5], the system named is PPARα and PPARγ (PPARα 및 PPARγ). Nature of the experiment: PPAR analysis, PPARα and PPARγ taken together. It is filed as binding. The following applies: final sample concentration 100 μM.

For `NC(=O)N/N=C/c1ccc(O)cc1` [화합물 1, (E)-2-(4-Hydroxybenzylidene)hydrazinecarboxamide], the tyrosinase inhibitory activity result in experiment [1] is reported as “양성대조군인 코지산(Kojic Acid)과 유사한 티로시네이즈 억제 활성”. On to `NC(=O)N/N=C/c1ccc(O)c(O)c1` [화합물 2, (E)-2-(3,4-Dihydroxybenzylidene)hydrazinecarboxamide], for which, in experiment [2], the ROS scavenging effect entry is listed as “양성대조군인 트롤록스(Trolox)만큼 소거하는 효과가 큰”. With `NC(=O)N/N=C/c1ccccc1O` [화합물 10, (E)-2-(2-Hydroxybenzylidene)hydrazinecarboxamide], the “PPARα activation (competitive activation rate), in words” value (from here on “PPARα activation”) in experiment [3] is on record as “양성대조군인 페노피브레이트보다 매우 뛰어난 PPARα 활성화제”.

As to `CC(=O)N/C(=C\c1ccc(O)c(O)c1)C(=O)O` [화합물 14, (Z)-2-Acetamido-3-(3,4-dihydroxyphenyl)acrylic acid], the ROS scavenging effect result in experiment [2] is reported as “양성대조군인 트롤록스(Trolox)만큼 소거하는 효과가 큰”. On to `CC(=O)N/C(=C\c1ccc(O)cc1O)C(=O)O` [화합물 15, (Z)-2-Acetamido-3-(2,4-dihydroxyphenyl)acrylic acid], for which, in experiment [4], the “PPARγ activation (competitive activation rate), in words” value was “양성대조군인 로지글리타존보다 뛰어난 PPARγ 활성화제”. Besides, the “simultaneous activation of PPARα and PPARγ” value in experiment [5] was “PPARα 및 PPARγ를 동시에 활성화할 수 있는 활성화제”. In experiment [3], the “PPARα activation” value is given as “양성대조군인 페노피브레이트보다 매우 뛰어난 PPARα 활성화제”. `COc1cc(/C=C(\NC(C)=O)C(=O)O)ccc1O` [화합물 16, (Z)-2-Acetamido-3-(4-hydroxy-3-methoxyphenyl)acrylic acid]: in experiment [2], the ROS scavenging effect entry is on record as “양성대조군인 트롤록스(Trolox)만큼 소거하는 효과가 큰”. Same read-out and setting: as for `CCOc1cc(/C=C(\NC(C)=O)C(=O)O)ccc1O` [화합물 17, (Z)-2-Acetamido-3-(3-ethoxy-4-hydroxyphenyl)acrylic acid], the entry is “양성대조군인 트롤록스(Trolox)만큼 소거하는 효과가 큰”. As for `CC(=O)N/C(=C\c1ccccc1O)C(=O)O` [화합물 23, (Z)-2-Acetamido-3-(2-hydroxyphenyl)acrylic acid], in experiment [4], the “PPARγ activation (competitive activation rate), in words” value was “양성대조군인 로지글리타존보다 뛰어난 PPARγ 활성화제”. Moreover, in experiment [5], the “simultaneous activation of PPARα and PPARγ” value is on record as “PPARα 및 PPARγ를 동시에 활성화할 수 있는 활성화제”. The “PPARα activation” value in experiment [3] is on record as “양성대조군인 페노피브레이트보다 매우 뛰어난 PPARα 활성화제”. For the compound `COc1cc(/C=C(\NC(C)=O)C(=O)O)cc(OC)c1O` [화합물 25, (Z)-2-Acetamido-3-(4-hydroxy-3,5-dimethoxyphenyl)acrylic acid], the ROS scavenging effect entry in experiment [2] is listed as “양성대조군인 트롤록스(Trolox)만큼 소거하는 효과가 큰”.
